TGI data for ten compounds are collected here from PubChem BioAssay (NCI).

SMILES strings stand for the structures.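 Protocol summary: plate cells (96-well), add compound at 5 concentrations, incubate 48 h, interpolate endpoints linearly. At the TGI there is no net growth.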

The test system of the first test is SK-OV-3 ovarian. Nature of the test: DTP human tumour cell line panel, 48 h.
In turn, `O=C(NCCN1CCOCC1)c1ccc2cc(C(=O)N3CC(CCl)c4ccc([N+](=O)[O-])cc43)[nH]c2c1` (stereo not given) displayed a concentration for total growth inhibition (TGI) of 40.5 µM.

Consider `COc1ccc(C#CC(=O)O)c(OC)c1`, for which the TGI was over 100 µM.

Regarding `O=c1c2cc3c(cc2[nH]c2ncccc12)OCO3`, the TGI is over 10 µM.

`Cc1csc(-c2cn(C)c3c2C(=O)C(N)=CC3=O)n1`: the TGI was over 100 µM.

For the compound `Nc1c(-c2cccc3ccccc23)c2ccc([N+](=O)[O-])cc2c(=O)n1-c1nc2ccccc2s1`, the TGI was 14.8 µM.

`CC1CC[C@@]2(OC1)OC1C[C@H]3[C@@H]4CC[C@H]5CC(OC6OC(CO)C(OC7OC(CO)C(O)C(O)C7OC7OC(CO)C(O)C(O)C7O)C(O)C6O)CCC5(C)[C@H]4CCC3(C)C1[C@@H]2C` (stereo not given in full) came in with a TGI of 6.04 µM.

`C/C=C/C=C/c1nc(C#N)c(N)o1` displayed a TGI of over 100 µM.

`CC(C)COP(=O)(OCC(C)C)C(NS(=O)(=O)c1ccccc1)(C(F)(F)F)C(F)(F)F` had a TGI of 29.9 µM.

In turn, `CN(C)CCCN1C(=S)N(CCCN(C)C)c2c3cc(O)ccc3nc3c([N+](=O)[O-])ccc1c23` registered a TGI of 17.2 µM.

The compound `COc1cc(C2SCC(=O)N2c2ccc(NC(=O)c3ccc(N4C(=O)CSC4c4cc(OC)c(OC)c(OC)c4)cc3)cc2)cc(OC)c1OC` (stereo not given) had a TGI of over 100 µM.

Another test deals with MDA-MB-435. The test is described as follows: DTP human tumour cell line panel, 48 h.
`O=C(NCCN1CCOCC1)c1ccc2cc(C(=O)N3CC(CCl)c4ccc([N+](=O)[O-])cc43)[nH]c2c1` (stereo not given) returned a total growth inhibition concentration (TGI) of 49.2 µM.

On to `COc1ccc(C#CC(=O)O)c(OC)c1`, for which the TGI was over 100 µM.

The compound `O=c1c2cc3c(cc2[nH]c2ncccc12)OCO3` returned a concentration for total growth inhibition (TGI) of over 10 µM.

Take `Cc1csc(-c2cn(C)c3c2C(=O)C(N)=CC3=O)n1`: the TGI came out at 15.3 µM.

`Nc1c(-c2cccc3ccccc23)c2ccc([N+](=O)[O-])cc2c(=O)n1-c1nc2ccccc2s1` came in with a TGI of over 100 µM.

Take `CC1CC[C@@]2(OC1)OC1C[C@H]3[C@@H]4CC[C@H]5CC(OC6OC(CO)C(OC7OC(CO)C(O)C(O)C7OC7OC(CO)C(O)C(O)C7O)C(O)C6O)CCC5(C)[C@H]4CCC3(C)C1[C@@H]2C` (stereo not given in full): the TGI stood at 9.7 µM. This lies in the single-digit micromolar range.

On to `C/C=C/C=C/c1nc(C#N)c(N)o1`, for which the TGI was over 100 µM.

`CC(C)COP(=O)(OCC(C)C)C(NS(=O)(=O)c1ccccc1)(C(F)(F)F)C(F)(F)F` came in with a TGI of 22.3 µM.

`CN(C)CCCN1C(=S)N(CCCN(C)C)c2c3cc(O)ccc3nc3c([N+](=O)[O-])ccc1c23`: the total growth inhibition concentration (TGI) was determined as 15.3 µM.

On to `COc1cc(C2SCC(=O)N2c2ccc(NC(=O)c3ccc(N4C(=O)CSC4c4cc(OC)c(OC)c(OC)c4)cc3)cc2)cc(OC)c1OC` (stereo not given), for which the TGI was determined as 61.4 µM.

The subject of another test is OVCAR-3 ovarian. Nature of the test: DTP human tumour cell line panel, 48 h.
The compound `O=C(NCCN1CCOCC1)c1ccc2cc(C(=O)N3CC(CCl)c4ccc([N+](=O)[O-])cc43)[nH]c2c1` (stereo not given) yielded a concentration for total growth inhibition (TGI) of 33.1 µM.

The compound `COc1ccc(C#CC(=O)O)c(OC)c1` had a total growth inhibition concentration (TGI) of over 100 µM.

`O=c1c2cc3c(cc2[nH]c2ncccc12)OCO3` had a TGI of over 10 µM.

For the compound `Cc1csc(-c2cn(C)c3c2C(=O)C(N)=CC3=O)n1`, the concentration for total growth inhibition (TGI) is over 67.3 µM.

Regarding `Nc1c(-c2cccc3ccccc23)c2ccc([N+](=O)[O-])cc2c(=O)n1-c1nc2ccccc2s1`, the concentration for total growth inhibition (TGI) is over 37 µM.

`CC1CC[C@@]2(OC1)OC1C[C@H]3[C@@H]4CC[C@H]5CC(OC6OC(CO)C(OC7OC(CO)C(O)C(O)C7OC7OC(CO)C(O)C(O)C7O)C(O)C6O)CCC5(C)[C@H]4CCC3(C)C1[C@@H]2C` (stereo not given in full) had a TGI of 5.94 µM.

Take `C/C=C/C=C/c1nc(C#N)c(N)o1`: the concentration for total growth inhibition (TGI) is over 100 µM.

In the case of `CC(C)COP(=O)(OCC(C)C)C(NS(=O)(=O)c1ccccc1)(C(F)(F)F)C(F)(F)F`, the TGI was determined as 23.8 µM.

Compound `CN(C)CCCN1C(=S)N(CCCN(C)C)c2c3cc(O)ccc3nc3c([N+](=O)[O-])ccc1c23` showed a TGI of 5.56 µM. This TGI lies about 4.3-fold lower than the previous one.

`COc1cc(C2SCC(=O)N2c2ccc(NC(=O)c3ccc(N4C(=O)CSC4c4cc(OC)c(OC)c(OC)c4)cc3)cc2)cc(OC)c1OC` (stereo not given): the TGI was over 100 µM.

Another test has as its system UACC-62 melanoma. Nature of the test: DTP human tumour cell line panel, 48 h.
Take `O=C(NCCN1CCOCC1)c1ccc2cc(C(=O)N3CC(CCl)c4ccc([N+](=O)[O-])cc43)[nH]c2c1` (stereo not given): the TGI turned out to be 43.4 µM.

`COc1ccc(C#CC(=O)O)c(OC)c1` showed a concentration for total growth inhibition (TGI) of over 100 µM.

As for `O=c1c2cc3c(cc2[nH]c2ncccc12)OCO3`, the total growth inhibition concentration (TGI) is over 10 µM.

`Cc1csc(-c2cn(C)c3c2C(=O)C(N)=CC3=O)n1` gave a concentration for total growth inhibition (TGI) of 26.3 µM.

With `Nc1c(-c2cccc3ccccc23)c2ccc([N+](=O)[O-])cc2c(=O)n1-c1nc2ccccc2s1`, the TGI was over 100 µM.

The compound `CC1CC[C@@]2(OC1)OC1C[C@H]3[C@@H]4CC[C@H]5CC(OC6OC(CO)C(OC7OC(CO)C(O)C(O)C7OC7OC(CO)C(O)C(O)C7O)C(O)C6O)CCC5(C)[C@H]4CCC3(C)C1[C@@H]2C` (stereo not given in full) displayed a TGI of 16.5 µM.

`C/C=C/C=C/c1nc(C#N)c(N)o1` had a TGI of over 100 µM.

In turn, `CC(C)COP(=O)(OCC(C)C)C(NS(=O)(=O)c1ccccc1)(C(F)(F)F)C(F)(F)F` came in with a TGI of 19.1 µM.

`CN(C)CCCN1C(=S)N(CCCN(C)C)c2c3cc(O)ccc3nc3c([N+](=O)[O-])ccc1c23` had a TGI of 19.6 µM. The TGI values of the last two compounds are within 1.5-fold of each other.

On to `COc1cc(C2SCC(=O)N2c2ccc(NC(=O)c3ccc(N4C(=O)CSC4c4cc(OC)c(OC)c(OC)c4)cc3)cc2)cc(OC)c1OC` (stereo not given), for which the TGI stood at 76.6 µM.

The test system of another test is SK-MEL-2 melanoma. The test is described as follows: DTP human tumour cell line panel, 48 h.
With `O=C(NCCN1CCOCC1)c1ccc2cc(C(=O)N3CC(CCl)c4ccc([N+](=O)[O-])cc43)[nH]c2c1` (stereo not given), the TGI turned out to be 32.7 µM.

As for `COc1ccc(C#CC(=O)O)c(OC)c1`, the total growth inhibition concentration (TGI) is over 100 µM.

`O=c1c2cc3c(cc2[nH]c2ncccc12)OCO3` registered a TGI of over 10 µM.

As for `Cc1csc(-c2cn(C)c3c2C(=O)C(N)=CC3=O)n1`, the TGI was over 82.7 µM.

Turning to `Nc1c(-c2cccc3ccccc23)c2ccc([N+](=O)[O-])cc2c(=O)n1-c1nc2ccccc2s1`, the total growth inhibition concentration (TGI) came out at 19.2 µM.

With `CC1CC[C@@]2(OC1)OC1C[C@H]3[C@@H]4CC[C@H]5CC(OC6OC(CO)C(OC7OC(CO)C(O)C(O)C7OC7OC(CO)C(O)C(O)C7O)C(O)C6O)CCC5(C)[C@H]4CCC3(C)C1[C@@H]2C` (stereo not given in full), the TGI was 8.05 µM.

`C/C=C/C=C/c1nc(C#N)c(N)o1` displayed a total growth inhibition concentration (TGI) of over 100 µM.

As to `CC(C)COP(=O)(OCC(C)C)C(NS(=O)(=O)c1ccccc1)(C(F)(F)F)C(F)(F)F`, the total growth inhibition concentration (TGI) was 14.3 µM.

With `CN(C)CCCN1C(=S)N(CCCN(C)C)c2c3cc(O)ccc3nc3c([N+](=O)[O-])ccc1c23`, the TGI worked out at 15.2 µM.

`COc1cc(C2SCC(=O)N2c2ccc(NC(=O)c3ccc(N4C(=O)CSC4c4cc(OC)c(OC)c(OC)c4)cc3)cc2)cc(OC)c1OC` (stereo not given) showed a concentration for total growth inhibition (TGI) of over 100 µM.
